{"source": "patent US8658664B2", "about": "(The Board of Regents of the University of Texas System, priority 2008, dated 2014)", "key": {"hedgehog signaling": {"system": "hedgehog signaling", "assay": "Motor neuron differentiation and embryonic body formation from embryonic stem cells", "format": "cell-based", "source_text": "To test stem cell functions, motor neuron differentiation experiments were used. First embryonic stem cells were used to form stem cell sphere (embryonic bodies, EB). In the presence of retinoic acid (RA) and sonic hedgehog or SMO agonist purmorphamine (AG), several types of neurons can be differentiated. These neurons can be distinguished by distinct markers. Hb9 is regarded as a marker for motor neuron (FIG. 6A)."}, "[1]": {"system": "pancreatic cancer cell line ASPC-1", "assay": "Orthotopic mouse model for pancreatic cancer metastasis", "format": "in vivo", "details": "ASPC-1-GFP injected into pancreas of nude mice; 20 mice per group; saline control 60%", "procedure": "An orthotopic mouse model for pancreatic cancer metastasis was established to test the effect of Cyc-T on pancreatic cancer. Green flourescent protein (GFP) was expressed in pancreatic cancer cell line ASPC-1, and then injected into pancreas of nude mice.\nThe effect of cyc-T was tested in the mouse model for pancreatic cancer metastasis described supra."}, "[2]": {"system": "basal cell carcinomas (BCC)", "assay": "Skin tumor shrinkage in mouse BCC models, topical application", "format": "in vivo", "details": "topical application for 21 days; K14 Ptch1 knockout and K14 SmoM2-YFP mice", "procedure": "Quantitative analysis was performed to calculate the percentage of tumor area in a given tissue area. Eight areas were used to measure the average value from each group, which was compared for the efficacy of the drugs."}}, "note": "Counter-ions that a name gives are not always drawn."}
{"smiles": "CC1=C2CC3C(CC=C4CC(O)CCC43C)C2CCC12OC1CC(C)CNC1C2C", "note": "(stereo not shown) [Cyclopamine tartrate]", "values": [{"measurement": "inhibition of hedgehog signaling / motor neuron differentiation (Hb9 marker)", "setting": "hedgehog signaling; embryonic bodies with retinoic acid and sonic hedgehog or purmorphamine, compared with KAAD-cyclopamine", "result": "as effective as KAAD-cyclopamine"}, {"measurement": "number and size of embryonic bodies (EBs)", "setting": "hedgehog signaling; embryonic stem cell spheres, DAPI fluorescent microscopy", "result": "reduces the number and the size of EBs"}, {"measurement": "frequency of tumor metastasis", "setting": "[1]", "result": 32, "unit": "%"}, {"measurement": "efficacy on hedgehog signaling-mediated skin tumors (percentage of tumor area in tissue area)", "setting": "[2]", "result": "very effective inhibitor for hedgehog signaling-mediated tumors"}]}
